Four molecules from patent US12398109B2, “2-amino-2-(1,2,3-triazole-4-yl)propane-1,3-diol derivative of novel compound for directly inhibiting ASM activity, and use thereof” (KYUNGPOOK NATIONAL UNIVERSITY INDUSTRY-ACADEMIC COOPERATION …, priority 2018, dated 2025) can be followed below.

One series relates to S1P receptor 1 (S1PR1). Nature of the series: S1PR1 expression in fibroblasts (Western blot). To be noted: normal or Alzheimer's patient fibroblasts, 10 μM. On the technique in general: In western blotting, separated proteins are transferred to a membrane and probed.
The next series relates to S1P. The experiment in a line: S1P level in fibroblasts. To be noted: normal or Alzheimer's patient fibroblasts, 10 μM.
Another series concerns Sphk. Nature of the series: Sphk activity in fibroblasts. The conditions noted are these: normal or Alzheimer's patient fibroblasts, 10 μM.
The nature of series [1]: Stability in human liver microsomes. In kind it is in vitro ADME. A general note: Liver microsomes are vesicles of endoplasmic reticulum, rich in cytochrome P450 enzymes.
The nature of series [2]: Stability in mouse liver microsomes. In kind it is in vitro ADME.
Series [3] in a line: Brain distribution after oral administration in normal mice. The series is classed as in vivo, mouse. To be noted: oral 10 mg/kg.
Series [4] can be described thus: Pharmacokinetic test in blood after oral or intravenous administration in normal mice. The conditions noted are these: mouse, 10 mg/kg.
Series [5] has as its system APP/PS1 mouse. The experiment in a line: Morris Water Maze test in APP/PS1 mouse. The series is classed as in vivo. The conditions noted are these: compared to SCNPA101 or FTY720. The protocol: (§1) In order to confirm a potential effect on learning and memory, a Morris Water Maze (MWM) test was performed. In the MWM, the mouse learned a task 4 times a day for 10 days, a platform was removed on day 11, and aprobe trial was performed. To evaluate activity and anxiety, an open field test and a dark and light test were performed. In the open field test, the mouse was placed in a quadrangular box for 10 minutes and then overall activity and a time spent to move around a wall side and a center were measured. In the dark and light test, the mouse was placed in a quadrangular box consisting of a dark box and a light box for 10 minutes, and a time staying in each box, the number of reciprocating the boxes, and a time to first enter into a light box were measured.

The next series concerns amyloid-β deposition. Nature of the series: Amyloid-β deposition in medulla and hippocampus of APP/PS1 mouse (ThioS, Aβ40, Aβ42 staining). In kind it is in vivo. To be noted: 100 mg/kg/day. The procedure:
In order to confirm whether the inhibition of ASM activity by administration of the ASM inhibitory compounds has an effect on Alzheimer's lesions, first, the medulla and hippocampus regions of the mouse were stained with Thioflavin S (ThioS) according to a known method to confirm protofibril amyloid-β deposition. In addition, immunofluorescence staining of Aβ40 and Aβ42 was performed to confirm the amyloid-β deposition.

The next series concerns TNF-a, IL-1b, IL-6. Nature of the series: mRNA expression of inflammatory cytokines in brain of APP/PS1 mouse (real-time quantitative PCR). The series is classed as in vivo. To be noted: SCNPA 100 mg/kg/day, FTY720 1 mg/kg/day. The procedure:
A real-time quantitative PCR method was used to measure the expression levels of inflammatory response-related cytokines (TNF-α, IL-1b, and IL-6). Total RNA was extracted from the brain tissue using an RNeasy Plus mini kit (Qiagen, Korea, Ltd), and cDNA was synthesized from 5 μg of total RNA using a kit from Clontech Co., Ltd. (Mountain View, CA). In addition, by using a Corbett research RG-6000 real-time PCR instrument, real-time quantitative PCR was performed by setting 95° C., 10 min; 95° C., 10 sec; 58° C., 15 sec; 72° C., 20 sec as one cycle and repeating 40 cycles.

Series [6] has as its system APP/PS1 mouse. Nature of the series: Open field test and dark & light test in APP/PS1 mouse. The series is classed as in vivo. To be noted: SCNPA 100 mg/kg/day, FTY720 1 mg/kg/day. The procedure: as §1
The next series in a line: in vivo. The conditions noted are these: mouse, po, 10 mg/kg.
For the next series, the system named is astrocytes (GFAP). The experiment in a line: Astrocytes (GFAP) in brain of APP/PS1 mouse. To be noted: SCNPA 100 mg/kg/day, FTY720 1 mg/kg/day.

Description for S1P receptor 1 (S1PR1): Human fibroblast lines (normal and PS1) were obtained from Coriell Institute and cultured in a DMEM containing 15% FBS at 37° C. and 5% CO2 and used. Thereafter, the cell lines were treated with 10 μM of each of the synthesized ASM inhibitory compounds and FTY720 (Cayman), and then changes in ASM activity, Ceramide, S1P, and S1PR1 were measured.
Protein expression of S1PR1 was analyzed using Western blotting. First, antibodies against S1PR1 (abcam) and β-actin (Santa Cruz) were used, and densitometric quantification was performed using ImageJ software (US National Institutes of Health).
Description for Sphk: Human fibroblast lines (normal and PS1) were obtained from Coriell Institute and cultured in a DMEM containing 15% FBS at 37° C. and 5% CO2 and used.
To measure a concentration level of Sphk, 3 μl of the fibroblast sample was mixed with a Sphk activity buffer and stored at 37° C. Subsequently, 54 μl of ethanol was added and the mixture was centrifuged after terminating a hydrolysis reaction. After 30 μl of a supernatant was transferred to a glass vial, 5 μl of the supernatant was applied to a UPLC system. Each Sphk concentration level was quantified using a UPLC system by comparing the Sphk concentration level with NBD bound to sphingosine and S1P. For extraction and quantification of Ceramide and S1P, lipids were extracted from the samples by a known method, and the dried lipid extract was resuspended in 25 μl of 0.2% Igepal CA-630 (Sigma-Aldrich), and the concentration levels of Ceramide and S1P were quantified using the UPLC system.

Consider `CCCCCCCCc1ccc(CCC(N)(CO)CO)cc1` [FTY720], for which the “expression of S1PR1” value in the series with S1P receptor 1 (S1PR1) is “reduced”. In the series on S1P, the “expression of S1P” value is “reduced”. For the same molecule, the Sphk activity result with Sphk is recorded as “reduced”.
Usually bioavailability stands for dose-corrected exposure relative to a reference, in per cent. Lower therefore signals poor availability. For `CCCCCCn1cc(C(N)(CO)CO)nn1` [SCNPA501, 2-amino-2-(1-hexyl-1H-1,2,3-triazol-4-yl)propane-1,3-diol], the “metabolic stability (in words)” value in [1] was “high metabolic stability”. For the same molecule, the “remaining amount after 30 minutes” value in series [2] turned out to be 98.21%. This molecule also displayed a brain distribution values in series [3] of 1.41. The molecule also had a bioavailability in [4] of 72.3%.
Take `CCCCCCCCCn1cc(C(N)(CO)CO)nn1` [SCNPA201, 2-amino-2-(1-nonanyl-1H-1,2,3-triazol-4-yl)propane-1,3-diol]: in the series with APP/PS1 mouse [5], the “effect of improving cognition” value was “more remarkable”. The “metabolic stability (in words)” value in series [1] is reported as “high metabolic stability”. For the same molecule, in the series with amyloid-β deposition, the Aβ40 deposition entry is listed as “lowest”, the Aβ42 deposition entry is recorded as “lowest” and the “protofibril Aβ deposition (Thioflavin S)” value was “lowest”. Also, the “remaining amount after 30 minutes” value in series [2] was determined as 95.66%. The “gene expression of inflammatory cytokines TNF-a, IL-1b, and IL-6” value with TNF-a, IL-1b, IL-6 is on record as “restored to a normal level”. In addition, the brain distribution values in [3] came out at 3.64. The molecule also yielded a bioavailability in [4] of 50.3%.
For the molecule `CCCCCCCCCCCCn1cc(C(N)(CO)CO)nn1` [SCNPA101, 2-amino-2-(1-dodecyl-1H-1,2,3-triazol-4-yl)propane-1,3-diol, reference compound], the results for the “remaining amount after 30 minutes” value in series [1] and in series [2] were 7.8% and 86.36%, respectively. Also, in the series on TNF-a, IL-1b, IL-6, the “gene expression of inflammatory cytokines TNF-a, IL-1b, and IL-6” value is recorded as “restored to a normal level”. The activity and anxiety result with APP/PS1 mouse [6] was “improved”. For the same molecule, the Kp in [3] (mouse, brain) came to 3.61. For the same molecule, the bioavailability in “in vivo” amounted to 19.6%. Further, the activity of astrocytes entry in the series with astrocytes (GFAP) was “significantly decreased”.
